Experimental data: ChEMBL document CHEMBL6092191, “Advancing Cancer Immunotherapy through Engineering New PD-L1 Degraders: A Comprehensive Study from Small Molecules to PD-L1-Specific Peptide-Drug Conjugates” (J Med Chem, 2024)
The source made the active and inactive calls. No cut-off for these calls is given here.

How the values were obtained:
[1] = test system: Lewis lung carcinoma cell line; assay: Antitumor T-cell immune response in Lewis lung carcinoma cells xenografted in C57BL/6 mouse model assessed as increase in GrB level in tumor at 10 mg/kg, ip administered daily for 10 days by ELISA; type: functional, organism-based; settings: time 10.0 day
[2] = test system: HCC827; assay: Effect on IFN-gamma-induced PD-L1 mRNA expression in human HCC827 cells at 10 uM by qRT-PCR analysis; type: functional, cell-based
[3] = biological target: COP9 signalosome complex subunit 5 (Homo sapiens) (UniProt Q92905); assay: Induction of PD-L1 degradation in human PC-9 cells assessed as reduction in green signal at 10 uM incubated for 24 hrs by immunofluorescence staining based analysis; type: cell-based
COP9 signalosome complex subunit 5 (Homo sapiens), sequence (Q92905 2-334 limits assumed, one chain of several): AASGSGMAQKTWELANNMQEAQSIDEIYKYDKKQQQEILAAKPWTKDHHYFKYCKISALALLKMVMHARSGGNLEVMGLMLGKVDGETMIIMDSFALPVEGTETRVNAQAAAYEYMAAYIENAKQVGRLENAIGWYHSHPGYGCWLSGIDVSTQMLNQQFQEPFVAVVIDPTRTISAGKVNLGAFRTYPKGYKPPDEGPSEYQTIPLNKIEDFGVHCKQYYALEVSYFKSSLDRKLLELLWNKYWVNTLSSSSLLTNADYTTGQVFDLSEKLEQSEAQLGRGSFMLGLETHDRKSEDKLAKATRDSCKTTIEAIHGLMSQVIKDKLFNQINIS

[4] = biological target: COP9 signalosome complex subunit 5 (Homo sapiens) (UniProt Q92905); assay: Induction of IFN-gamma-induced PD-L1 degradation in human NCI-H1299 cells at 10 uM incubated for 24 hrs by Western blot analysis; type: cell-based
[5] = test system: Lewis lung carcinoma cell line; assay: Anticancer activity against Lewis lung carcinoma cells xenografted in C57BL/6 mouse model assessed as tumor growth inhibition at 10 mg/kg, ip administered daily for 10 days; type: functional, organism-based; settings: time 10.0 day
[6] = biological target: COP9 signalosome complex subunit 5 (Homo sapiens) (UniProt Q92905); assay: Induction of PD-L1 degradation in […] cells incubated for 24 hrs by Western blot analysis; type: cell-based; settings: Lewis lung carcinoma cell line, dose <= 100.0 µM
[7] = biological target: COP9 signalosome complex subunit 5 (Homo sapiens) (UniProt Q92905); assay: Induction of PD-L1 degradation in human NCI-H460 cells at 10 uM incubated for 24 hrs by Western blot analysis; type: cell-based
[8] = test system: Lewis lung carcinoma cell line; assay: Antiproliferative activity against Lewis lung carcinoma cells at 10 uM measured after 4 days by MTT assay; type: functional, cell-based; settings: Mus musculus, time 4.0 day
[9] = biological target: COP9 signalosome complex subunit 5 (Homo sapiens) (UniProt Q92905); assay: Induction of PD-L1 degradation in human NCI-H460 cells assessed as PD-L1 ubiquitination by Western blot analysis; type: cell-based
[10] = test system: NCI-H460; assay: Inhibition of cell survival of human NCI-H460 cells co-cultivated with activated T cells at 10 uM incubated for 2 days by crystal violet staining based analysis; type: functional; settings: time 2.0 day
[11] = test system: 3T3-L1; assay: Antiproliferative activity against mouse 3T3-L1 cells at 10 uM incubated for 4 days; type: toxicity, cell-based; settings: 3t3-l1, 96 h, time 4 day
[12] = Toxicity in C57BL/6 mouse model xenografted with […] cells assessed as change in AST level at 10 mg/kg, ip administered daily for 10 days; type: organism-based, Blood; settings: in vivo, 240 h, time 10 day
[13] = biological target: COP9 signalosome complex subunit 5 (Homo sapiens) (UniProt Q92905); assay: Induction of IFN-gamma-induced PD-L1 degradation in human A549 cells at 10 uM incubated for 24 hrs by Western blot analysis; type: cell-based
[14] = biological target: COP9 signalosome complex subunit 5 (Homo sapiens) (UniProt Q92905); assay: Induction of PD-L1 degradation in human PC-9 cells incubated for 24 hrs by Western blot analysis; type: cell-based; settings: dose <= 100.0 µM
[15] = Drug uptake in human PC-9 cells at 10 uM by fluorescence microscopy; type: ADME, cell-based; settings: pc-9, 10 µM
[16] = biological target: COP9 signalosome complex subunit 5 (Homo sapiens) (UniProt Q92905); assay: Induction of PD-L1 degradation in human NCI-H460 cells at 10 uM by Western blot analysis; type: cell-based; settings: time <= 36.0 hrs
[17] = biological target: COP9 signalosome complex subunit 5 (Homo sapiens) (UniProt Q92905); assay: Induction of PD-L1 degradation in human NCI-H460 cells incubated for 24 hrs by Western blot analysis; type: cell-based; settings: dose <= 100.0 µM
[18] = Toxicity in C57BL/6 mouse model xenografted with […] cells assessed as obvious damage in heart at 10 mg/kg, ip administered daily for 10 days by H and E staining based analysis; type: organism-based; settings: in vivo, 240 h, time 10 day

Activity [3]: Active | Activity [4]: Active | Activity [6]: Dose-dependent-effect | Activity [9]: Active | Activity [13]: Active | Activity [14]: Dose-dependent-effect | Drug uptake [15]: Time-dependent-effect | Activity [16]: Time-dependent-effect | Activity [17]: Dose-dependent-effect
Structure (SMILES): COc1cc2c(cc1OC)-c1cc3ccc(OC)c(OCCN)c3c[n+]1CC2.[Cl-]
Activity [1]: Active | Activity [2]: inactive | Activity [5]: Active | Activity [7]: Active; Most Effective Compound Among Pmt-O9 Derivatives | Activity [8]: inactive | inhibition [10]: Active | Activity [11]: Non-toxic | Activity [12]: Non-toxic | Activity [18]: Non-toxic
